Assay results: PMC7039992, “The structural basis of fungal glucuronoyl esterase activity on natural substrates” (Nature Communications, 2020)
Where “and” joins values, the source holds several entries; their conditions need not be identical. Equal values may be shown once.

Key:
[1] = molecular target: T1, dΔS270A CuGE (inactive truncated deglycosylated variant) (Cerrena unicolor, UniProt A0A0A7EQR3, S286A); experiment: Microscale thermophoresis (MST, LabelFree) binding of soluble ligands to dΔS270A
T1 construct: truncated CuGE (residues G79-T458) corresponding to the catalytic domain only; His6 (C); TEV protease cleavage site (C); made in house; host or cells: Pichia pastoris X-33
Protocol: (§1) Binding affinities for the soluble ligands U^m4XX^-OH (O-UXXR, MEGAZYMES), MeGlcA (4-O-methyl-D-glucuronic acid, MM46686, Carbosynth, Crompton UK), and MeMeGlcA (4-O-methyl-D-glucopyranosyluronate, purchased from Institute of Chemistry, Slovak Academy of Sciences, Bratislava, Slovakia) were measured by MST. The protein stocks, dΔS207A and ΔWT, were adjusted to 200 nM with 100 mM sodium acetate buffer pH 5 supplemented with 0.1% Pluronic F-127. Ligand stocks (100 mM U^m4XX^-OH, 43 mM MeGlcA and 250 mM MeMeGlcA) were prepared in 100 mM sodium acetate buffer pH 5, and for each ligand a series of 16 1:1 dilutions was prepared using the same buffer. For the measurement, each ligand dilution was mixed with one volume of protein, which led to a final protein concentration of 100 nM and final ligand concentrations in the mM to nM range. After 10 min incubation followed by centrifugation at 10,000 × g for 10 min, the samples were loaded into Monolith NT.LabelFree zero-background capillaries (NanoTemper Technologies). The MST experiment was performed with a Monolith NT.LabelFree instrument (NanoTemper Technologies) at 25 °C using 30% LED power and medium MST power. […] Final ligand concentration ranges used in the analysis of the MST signal were: U^m4XX^-OH 25 mM to 1.53 μM, MeGlcA 10.8 mM to 656 nM and MeMeGlcA 15.6 mM to 3.81 μM. For each ligand-binding curve, data from at least three independently pipetted measurements were included in the analysis with the MO. Affinity Analysis software (version 2.3, NanoTemper Technologies) using the signal from an MST-on time of 5 s.

[2] = test system: CuGE catalytic domain crystals; experiment: Crystal soaking with ligands; type: binding, Cerrena unicolor; conditions: concentrations up to 0.5 M
Protocol: The deglycosylated CuGE variants dWT and dΔS207A were both screened for crystallization. However, all crystals obtained contain the catalytic domain only, as crystals formed in experiments with the full-length enzyme (dWT) turned out to be a proteolytic fragment lacking the CBM1 and linker region (Δ*dWT). […] Crystallization and ligand soak conditions are summarized in Supplementary Table 1. The vast majority of crystals formed at 4 °C and with high molecular weight polymers (SOKALAN CP7, PEG 10,000 or PEG 8000) as precipitants. Crystals were cryoprotected by brief soaks in either reservoir or ligand stock solutions supplemented with 26% glycerol and flash-frozen in liquid nitrogen. […] A refinement protocol using the maximum-likelihood target, real-space refinement, refinement of coordinates, individual isotropic temperature factors and translation-liberation-screw (TLS) refinement using TLS groups determined by the PHENIX software was applied. […]

[3] = molecular target: T2, ΔWT CuGE (truncated, catalytic domain only) (Cerrena unicolor, UniProt A0A0A7EQR3); experiment: Microscale thermophoresis (MST, LabelFree) binding of soluble ligands to ΔWT; conditions: for Fnorm Average: MST
T2 construct: truncated CuGE (residues G79-T458) corresponding to the catalytic domain only; His6 (C); TEV protease cleavage site (C); made in house; host or cells: Pichia pastoris X-33
Protocol: as §1

[4] = Stability measurements: apparent thermal unfolding temperature (Ti) from intrinsic fluorescence, Tycho NT.6; type: physicochemical, Cerrena unicolor; conditions: 20 mM sodium acetate buffer pH 5
Protocol: In order to evaluate the stability of the different CuGE variants apparent unfolding temperatures (Ti) were monitored based on changes in intrinsic fluorescence using a Tycho NT.6 instrument (NanoTemper Technologies). The measurements were made in 20 mM sodium acetate buffer pH 5, protein concentrations in the range 0.07–0.3 mg mL^−1.

Molecule: CO[C@@H]([C@H](O)[C@@H](O)C=O)[C@H](O)C(=O)O [MeGlcA, 4-O-methyl-D-glucuronic acid]
- dissociation constant, times higher compared to dΔS270A:U^m4XX^-OH ([1]; MST): ~ 10 times
- Fnorm Average ([1]; MST, ligand Conc 6.56128e-7 M): 892.97
- Fnorm Average ([1]; MST, ligand Conc 1.31226e-6 M): 893.37
- Fnorm Average ([1]; MST, ligand Conc 2.62451e-6 M): 892.22
- Fnorm Average ([1]; MST, ligand Conc 5.24902e-6 M): 893.19
- Fnorm Average ([1]; MST, ligand Conc 1.0498e-5 M): 892.96
- Fnorm Average ([1]; MST, ligand Conc 2.09961e-5 M): 892.61
- Fnorm Average ([1]; MST, ligand Conc 4.19922e-5 M): 895.02
- Fnorm Average ([1]; MST, ligand Conc 8.39844e-5 M): 893.94
- Fnorm Average ([1]; MST, ligand Conc 0.000167969 M): 894.55
- Fnorm Average ([1]; MST, ligand Conc 0.000335937 M): 893.65
- Fnorm Average ([1]; MST, ligand Conc 0.000671875 M): 895.68
- Fnorm Average ([1]; MST, ligand Conc 0.00134375 M): 895.81
- Fnorm Average ([1]; MST, ligand Conc 0.0026875 M): 897.59
- Fnorm Average ([1]; MST, ligand Conc 0.005375 M): 898.85
- Fnorm Average ([1]; MST, ligand Conc 0.01075 M): 901.30

Molecule: COC(=O)[C@H]1OC(O)[C@H](O)[C@@H](O)[C@@H]1OC (stereo partly drawn) [MeMeGlcA, methyl ester of 4-O-methyl-D-glucuronic acid]
- complex formation on crystal soak [2]: did not result in a complex
- Kd [1]: > 10 mM
- Fnorm Average ([1]; MST, ligand Conc 3.8147e-6 M): 893.87
- Fnorm Average ([1]; MST, ligand Conc 7.62939e-6 M): 892.81
- Fnorm Average ([1]; MST, ligand Conc 1.52588e-5 M): 893.60
- Fnorm Average ([1]; MST, ligand Conc 3.05176e-5 M): 893.00
- Fnorm Average ([1]; MST, ligand Conc 6.10352e-5 M): 891.24
- Fnorm Average ([1]; MST, ligand Conc 0.00012207 M): 892.80
- Fnorm Average ([1]; MST, ligand Conc 0.000244141 M): 892.27
- Fnorm Average ([1]; MST, ligand Conc 0.000488281 M): 892.23
- Fnorm Average ([1]; MST, ligand Conc 0.000976562 M): 892.05
- Fnorm Average ([1]; MST, ligand Conc 0.00195312 M): 893.14
- Fnorm Average ([1]; MST, ligand Conc 0.00390625 M): 894.69
- Fnorm Average ([1]; MST, ligand Conc 0.0078125 M): 894.83
- Fnorm Average ([1]; MST, ligand Conc 0.015625 M): 899.63

Molecule: CO[C@H]1[C@H](O)[C@@H](O)[C@@H](O[C@H]2[C@H](O[C@@H]3CO[C@@H](O[C@H](CO)[C@H](O)[C@@H](O)CO)[C@H](O)[C@H]3O)OC[C@@H](O)[C@@H]2O)O[C@@H]1C(=O)O [U^m4XX^-OH, aldotetrauronic acid]
- Fnorm Average ([1]; MST, ligand Conc 1.52588e-6 M): 893.61
- Fnorm Average ([1]; MST, ligand Conc 3.05176e-6 M): 893.69
- Fnorm Average ([1]; MST, ligand Conc 6.10352e-6 M): 893.20
- Fnorm Average ([1]; MST, ligand Conc 1.2207e-5 M): 894.05
- Fnorm Average ([1]; MST, ligand Conc 2.44141e-5 M): 893.89
- Fnorm Average ([1]; MST, ligand Conc 4.88281e-5 M): 895.55
- Fnorm Average ([1]; MST, ligand Conc 9.76563e-5 M): 898.89
- Fnorm Average ([1]; MST, ligand Conc 0.000195313 M): 901.02
- Fnorm Average ([1]; MST, ligand Conc 0.000390625 M): 904.70
- Fnorm Average ([1]; MST, ligand Conc 0.00078125 M): 908.26
- Fnorm Average ([1]; MST, ligand Conc 0.0015625 M): 908.91
- Fnorm Average ([1]; MST, ligand Conc 0.003125 M): 910.47
- Fnorm Average ([1]; MST, ligand Conc 0.00625 M): 911.05
- Fnorm Average ([1]; MST, ligand Conc 0.0125 M): 912.09
- Fnorm Average ([1]; MST, ligand Conc 0.025 M): 909.72
- Kd [3]: 5 mM
- Fnorm Average ([3]; ligand Conc 1.52588e-6 M): 893.29
- Fnorm Average ([3]; ligand Conc 3.05176e-6 M): 893.55
- Fnorm Average ([3]; ligand Conc 6.10352e-6 M): 893.63
- Fnorm Average ([3]; ligand Conc 1.2207e-5 M): 892.18
- Fnorm Average ([3]; ligand Conc 2.44141e-5 M): 892.73
- Fnorm Average ([3]; ligand Conc 4.88281e-5 M): 894.37
- Fnorm Average ([3]; ligand Conc 9.76563e-5 M): 893.73
- Fnorm Average ([3]; ligand Conc 0.000195313 M): 893.94
- Fnorm Average ([3]; ligand Conc 0.000390625 M): 894.62
- Fnorm Average ([3]; ligand Conc 0.00078125 M): 893.24
- Fnorm Average ([3]; ligand Conc 0.0015625 M): 896.88
- Fnorm Average ([3]; ligand Conc 0.003125 M): 900.40
- Fnorm Average ([3]; ligand Conc 0.00625 M): 905.36
- Fnorm Average ([3]; ligand Conc 0.0125 M): 907.85
- Fnorm Average ([3]; ligand Conc 0.025 M): 907.66

B1: dWT: enzymatically deglycosylated full-length WT CuGE (protein)
chain: QASAPQWGQCGGIGWTGPTACPSGWACQQLNAYYSQCLQGAAPAPARTTAAPPPPPATTAAPPPPTTSAPTGSSPVAGACGAIASTVPNYNNAKLPDPFTFANGTALRTKADWSCRRAEISALIQNYEAGTLPPKPPVVTASFSKSGNTGTLAITAGLSNSQTIKFSPTISYPSGTPPANGWPLIIAYEGGSIPIPAGVATLTYSNSDMAQQNSASSRGQGLFYQLYGSTHSASAMTAWVWGVSRIIDALEMTPTAQINTQRIGVTGCSRDGKGALMAGAFEERIALTIPQESGSGGDACWRLSKYEIDNGNQVQDAVEIVGENVWFSTNFNNYVQKLPTVPEDHHLLAAMVAPRAMISFENTDYLWLSPMSSFGCMTAAHTVWQGLGIADSHGFAQVGGHAHCAWPSSLTPQLNAFINRFLLDQSATTNVFTTNNQFGKVQWNAANWITWTTPTLT
modifications: N-glycosylation at N104 trimmed with Endo H; O-glycosylation in the linker region trimmed with alpha-1-2,3,6 mannosidase; left off: c-myc epitope, C-terminal, state not stated | His6, C-terminal, stat
notes: enzymatically deglycosylated full-length WT CuGE
- Ti, single measurements ([4]; individual replicates): 75.9 °C and 75.7 °C and 75.8 °C
- Ti, apparent thermal unfolding temperature (mean) ([4]; protein 0.07–0.3 mg mL^−1, intrinsic fluorescence): 75.8 °C
